Measurements as given in ChEMBL document CHEMBL5463728, “Data for DCP probe BAY-6096” (2023).

Tests used:
[1] = molecular target: Prostaglandin G/H synthase 1 (Homo sapiens) (UniProt P23219); assay: Inhibition of Cyclooxygenase COX-1 at compound concentration of 10.0 uM in the Eurofins-Panlabs enzyme assay (Eurofins_assay_116020); details: Compound concentration 10.0 uM
[2] = molecular target: Monoamine oxidase B (MAO-B) (Homo sapiens, UniProt P27338); assay: Inhibition of Monoamine Oxidase MAO-B at compound concentration of 10.0 uM in the Eurofins-Panlabs enzyme assay (Eurofins_assay_140120); set-up: substrate with concentration 50 uM Kynuramine, incubation time 60 min, incubation temperature 37 C; details: recombinant human MAO-B expressed in insect Hi5 cells, probe Kynuramine (50 uM), compound concentration 10 uM
[3] = molecular target: 3',5'-cyclic-AMP phosphodiesterase 4D (Homo sapiens) (UniProt Q08499); assay: Inhibition of Phosphodiesterase PDE4D2 at 10 µM in the Eurofins-Panlabs enzyme assay (Eurofins_assay_154420); set-up: substrate with concentration; details: Compound concentration 10.0 uM
[4] = molecular target: Alpha-1A adrenergic receptor (Homo sapiens, UniProt P35348); assay: Adrenoceptor reporter cell assay (ADRA1A); format: functional
Sequence of Alpha-1A adrenergic receptor (P35348 whole entry): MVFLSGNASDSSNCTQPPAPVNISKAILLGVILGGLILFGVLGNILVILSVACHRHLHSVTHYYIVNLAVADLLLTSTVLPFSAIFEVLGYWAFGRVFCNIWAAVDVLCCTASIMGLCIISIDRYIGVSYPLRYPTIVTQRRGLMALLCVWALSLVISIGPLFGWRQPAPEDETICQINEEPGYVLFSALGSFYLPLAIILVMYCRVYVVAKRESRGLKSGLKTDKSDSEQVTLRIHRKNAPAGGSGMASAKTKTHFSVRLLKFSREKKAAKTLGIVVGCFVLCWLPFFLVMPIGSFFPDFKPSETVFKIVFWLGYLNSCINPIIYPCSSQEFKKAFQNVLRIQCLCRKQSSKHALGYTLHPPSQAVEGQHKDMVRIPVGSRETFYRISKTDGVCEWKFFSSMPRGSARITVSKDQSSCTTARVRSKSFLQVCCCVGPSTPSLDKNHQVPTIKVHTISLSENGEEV

[5] = molecular target: Alpha-2C adrenergic receptor (Homo sapiens, UniProt P18825); assay: Adrenoceptor reporter cell assay (ADRA2C); format: functional
[6] = molecular target: Beta-2 adrenergic receptor (Homo sapiens, UniProt P07550); assay: Adrenoceptor reporter cell assay (ADRB2); format: functional
[7] = molecular target: Aldo-keto reductase family 1 member B1 (Rattus norvegicus) (UniProt P07943); assay: Inhibition of Aldose Reductase at compound concentration of 10.0 uM in the Eurofins-Panlabs enzyme assay (Eurofins_assay_107000); set-up: substrate with concentration; details: Compound concentration 10.0 uM
[8] = molecular target: 5-hydroxytryptamine receptor 1D (Homo sapiens) (UniProt P28221); details: Compound concentration 10.0 uM
Sequence of 5-hydroxytryptamine receptor 1D (Homo sapiens) (P28221 whole entry): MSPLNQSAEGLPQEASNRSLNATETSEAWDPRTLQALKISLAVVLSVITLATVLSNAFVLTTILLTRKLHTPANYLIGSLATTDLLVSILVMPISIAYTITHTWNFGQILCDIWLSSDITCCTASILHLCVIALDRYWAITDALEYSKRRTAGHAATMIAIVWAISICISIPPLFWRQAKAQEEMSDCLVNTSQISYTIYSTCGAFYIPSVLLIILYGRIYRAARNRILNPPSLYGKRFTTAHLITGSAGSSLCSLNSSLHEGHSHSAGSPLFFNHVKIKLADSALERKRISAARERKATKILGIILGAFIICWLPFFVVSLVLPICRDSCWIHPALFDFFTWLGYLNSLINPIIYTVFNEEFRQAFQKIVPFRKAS

[9] = molecular target: 5-hydroxytryptamine receptor 2A (Homo sapiens) (UniProt P28223); details: Compound concentration 10.0 uM
[10] = molecular target: 5-hydroxytryptamine receptor 5A (Homo sapiens) (UniProt P47898); details: Compound concentration 10.0 uM
[11] = molecular target: 5-hydroxytryptamine receptor 7 (Homo sapiens) (UniProt P34969); details: Compound concentration 10.0 uM
[12] = molecular target: D(1A) dopamine receptor (Homo sapiens) (UniProt P21728); details: Compound concentration 10.0 uM
Sequence of D(1A) dopamine receptor (Homo sapiens) (P21728 whole entry): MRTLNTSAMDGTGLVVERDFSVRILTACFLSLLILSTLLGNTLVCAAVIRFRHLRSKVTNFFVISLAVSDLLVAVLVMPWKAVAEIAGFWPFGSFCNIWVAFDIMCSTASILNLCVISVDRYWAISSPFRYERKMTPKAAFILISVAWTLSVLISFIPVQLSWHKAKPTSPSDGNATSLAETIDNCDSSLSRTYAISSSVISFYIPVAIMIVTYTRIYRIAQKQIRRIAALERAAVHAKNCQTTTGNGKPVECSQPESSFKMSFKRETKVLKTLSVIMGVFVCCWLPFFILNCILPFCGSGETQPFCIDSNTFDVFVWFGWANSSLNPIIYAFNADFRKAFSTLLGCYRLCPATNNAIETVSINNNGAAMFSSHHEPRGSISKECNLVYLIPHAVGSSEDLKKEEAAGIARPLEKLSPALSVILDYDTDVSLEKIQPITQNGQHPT

[13] = molecular target: Sodium-dependent serotonin transporter (Homo sapiens) (UniProt P31645); details: Compound concentration 10.0 uM
Sequence of Sodium-dependent serotonin transporter (Homo sapiens) (P31645 whole entry, looked up): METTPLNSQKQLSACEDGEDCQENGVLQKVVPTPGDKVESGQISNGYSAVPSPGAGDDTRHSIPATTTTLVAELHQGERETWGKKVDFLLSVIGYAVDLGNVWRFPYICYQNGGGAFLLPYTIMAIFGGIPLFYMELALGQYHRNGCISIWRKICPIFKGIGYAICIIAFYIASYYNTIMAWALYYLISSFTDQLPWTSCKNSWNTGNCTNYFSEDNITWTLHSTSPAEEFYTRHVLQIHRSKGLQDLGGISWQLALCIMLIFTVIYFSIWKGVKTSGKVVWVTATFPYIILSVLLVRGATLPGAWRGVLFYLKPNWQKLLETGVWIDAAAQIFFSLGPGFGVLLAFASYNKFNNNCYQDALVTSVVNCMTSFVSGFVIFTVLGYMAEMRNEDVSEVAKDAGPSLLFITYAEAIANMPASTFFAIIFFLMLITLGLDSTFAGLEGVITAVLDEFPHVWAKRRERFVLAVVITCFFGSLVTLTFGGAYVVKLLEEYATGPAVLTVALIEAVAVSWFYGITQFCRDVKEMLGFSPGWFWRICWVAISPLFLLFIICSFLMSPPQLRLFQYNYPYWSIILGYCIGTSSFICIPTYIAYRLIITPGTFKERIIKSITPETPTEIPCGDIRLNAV

[14] = molecular target: Histamine H1 receptor (Homo sapiens) (UniProt P35367); details: Compound concentration 10.0 uM
Sequence of Histamine H1 receptor (Homo sapiens) (P35367 whole entry): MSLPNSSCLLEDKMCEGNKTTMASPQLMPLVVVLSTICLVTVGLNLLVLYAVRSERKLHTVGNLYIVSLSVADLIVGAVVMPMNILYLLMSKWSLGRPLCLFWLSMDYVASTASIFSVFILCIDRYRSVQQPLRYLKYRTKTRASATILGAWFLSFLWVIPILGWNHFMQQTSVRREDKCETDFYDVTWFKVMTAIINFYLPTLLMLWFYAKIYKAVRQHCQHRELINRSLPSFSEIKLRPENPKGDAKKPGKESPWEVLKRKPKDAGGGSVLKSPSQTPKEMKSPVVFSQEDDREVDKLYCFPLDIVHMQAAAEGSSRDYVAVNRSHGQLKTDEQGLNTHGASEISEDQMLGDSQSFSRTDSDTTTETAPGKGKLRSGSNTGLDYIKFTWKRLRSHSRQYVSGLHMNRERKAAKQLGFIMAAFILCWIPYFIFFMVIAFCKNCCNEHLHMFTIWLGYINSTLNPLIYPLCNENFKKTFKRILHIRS

[15] = molecular target: Histamine H3 receptor (Homo sapiens) (UniProt Q9Y5N1); details: Compound concentration 10.0 uM
[16] = molecular target: Histamine H4 receptor (Homo sapiens) (UniProt Q9H3N8); details: Compound concentration 10.0 uM
Sequence of Histamine H4 receptor (Homo sapiens) (Q9H3N8 whole entry): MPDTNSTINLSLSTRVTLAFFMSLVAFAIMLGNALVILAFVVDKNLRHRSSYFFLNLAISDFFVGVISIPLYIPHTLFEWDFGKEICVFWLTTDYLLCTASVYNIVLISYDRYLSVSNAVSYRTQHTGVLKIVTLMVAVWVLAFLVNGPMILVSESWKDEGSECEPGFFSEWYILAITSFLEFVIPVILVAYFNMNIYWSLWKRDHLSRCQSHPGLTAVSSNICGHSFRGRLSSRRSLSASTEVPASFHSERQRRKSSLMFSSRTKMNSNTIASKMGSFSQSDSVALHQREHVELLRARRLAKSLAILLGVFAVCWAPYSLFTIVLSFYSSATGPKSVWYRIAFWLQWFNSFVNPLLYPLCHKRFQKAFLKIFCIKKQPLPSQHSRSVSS

[17] = molecular target: Alpha-1A adrenergic receptor (Homo sapiens) (UniProt P35348); details: Compound concentration 10.0 uM
Sequence of Alpha-1A adrenergic receptor (Homo sapiens) (P35348 whole entry): as the sequence (P35348 whole entry) above

[18] = molecular target: Alpha-2A adrenergic receptor (Homo sapiens) (UniProt P08913); details: Compound concentration 10.0 uM
Sequence of Alpha-2A adrenergic receptor (Homo sapiens) (P08913 whole entry): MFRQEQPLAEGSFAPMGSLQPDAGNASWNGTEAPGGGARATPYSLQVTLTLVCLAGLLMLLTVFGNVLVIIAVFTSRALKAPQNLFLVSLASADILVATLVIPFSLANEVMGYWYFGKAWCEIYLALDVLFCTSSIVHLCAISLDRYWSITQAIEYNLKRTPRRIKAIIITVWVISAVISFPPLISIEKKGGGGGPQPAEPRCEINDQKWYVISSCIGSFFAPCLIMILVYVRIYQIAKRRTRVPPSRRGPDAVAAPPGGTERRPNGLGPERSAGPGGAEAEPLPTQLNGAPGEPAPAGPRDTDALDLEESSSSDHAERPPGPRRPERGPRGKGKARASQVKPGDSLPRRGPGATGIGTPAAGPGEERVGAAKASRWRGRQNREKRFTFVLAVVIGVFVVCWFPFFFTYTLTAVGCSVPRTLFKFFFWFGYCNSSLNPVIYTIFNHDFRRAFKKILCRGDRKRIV

[19] = molecular target: Beta-1 adrenergic receptor (Homo sapiens, UniProt P08588); details: Compound concentration 10.0 uM
Sequence of Beta-1 adrenergic receptor (P08588 whole entry, looked up): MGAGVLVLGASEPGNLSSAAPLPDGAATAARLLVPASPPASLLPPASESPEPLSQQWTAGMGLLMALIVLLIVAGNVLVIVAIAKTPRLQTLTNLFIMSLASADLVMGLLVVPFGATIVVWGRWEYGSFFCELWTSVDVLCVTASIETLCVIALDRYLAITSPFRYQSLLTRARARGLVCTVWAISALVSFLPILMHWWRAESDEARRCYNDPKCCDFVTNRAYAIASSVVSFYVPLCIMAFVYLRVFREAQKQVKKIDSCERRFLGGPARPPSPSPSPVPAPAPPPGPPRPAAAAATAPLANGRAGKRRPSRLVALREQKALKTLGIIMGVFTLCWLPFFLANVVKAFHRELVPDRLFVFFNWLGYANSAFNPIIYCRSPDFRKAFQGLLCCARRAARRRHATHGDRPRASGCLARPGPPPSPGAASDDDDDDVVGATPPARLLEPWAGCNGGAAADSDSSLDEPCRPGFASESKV

[20] = molecular target: T1, Muscarinic acetylcholine receptor M2 (Homo sapiens) (UniProt P08172); details: Compound concentration 10.0 uM
T1 sequence (whole entry): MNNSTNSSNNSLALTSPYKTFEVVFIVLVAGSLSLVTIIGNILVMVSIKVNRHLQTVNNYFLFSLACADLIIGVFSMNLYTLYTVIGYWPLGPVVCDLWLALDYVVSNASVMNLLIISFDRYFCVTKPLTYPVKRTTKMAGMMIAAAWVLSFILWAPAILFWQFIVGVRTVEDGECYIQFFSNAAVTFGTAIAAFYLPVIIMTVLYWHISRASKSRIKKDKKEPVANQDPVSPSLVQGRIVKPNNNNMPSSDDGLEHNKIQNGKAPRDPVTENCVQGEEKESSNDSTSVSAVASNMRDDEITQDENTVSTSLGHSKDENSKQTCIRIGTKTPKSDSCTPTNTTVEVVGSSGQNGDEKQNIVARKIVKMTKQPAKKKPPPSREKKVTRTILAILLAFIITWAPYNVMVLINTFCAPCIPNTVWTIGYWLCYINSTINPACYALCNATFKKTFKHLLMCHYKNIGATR

[21] = molecular target: Beta-3 adrenergic receptor (Homo sapiens, UniProt P13945); details: Compound concentration 10.0 uM
Sequence of Beta-3 adrenergic receptor (P13945 whole entry, looked up): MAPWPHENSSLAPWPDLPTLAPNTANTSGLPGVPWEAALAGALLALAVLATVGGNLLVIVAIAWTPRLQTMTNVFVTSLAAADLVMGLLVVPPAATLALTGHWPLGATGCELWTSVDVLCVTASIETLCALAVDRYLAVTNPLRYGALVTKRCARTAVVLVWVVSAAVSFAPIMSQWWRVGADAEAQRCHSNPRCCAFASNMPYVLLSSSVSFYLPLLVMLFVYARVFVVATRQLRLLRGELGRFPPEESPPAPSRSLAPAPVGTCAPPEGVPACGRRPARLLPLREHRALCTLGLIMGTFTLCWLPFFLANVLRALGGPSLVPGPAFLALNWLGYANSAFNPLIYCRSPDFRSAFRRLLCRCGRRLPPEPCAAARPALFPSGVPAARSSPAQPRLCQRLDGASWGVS

[22] = molecular target: Alpha-1D adrenergic receptor (Homo sapiens) (UniProt P25100); details: Compound concentration 10.0 uM
Sequence of Alpha-1D adrenergic receptor (Homo sapiens) (P25100 whole entry): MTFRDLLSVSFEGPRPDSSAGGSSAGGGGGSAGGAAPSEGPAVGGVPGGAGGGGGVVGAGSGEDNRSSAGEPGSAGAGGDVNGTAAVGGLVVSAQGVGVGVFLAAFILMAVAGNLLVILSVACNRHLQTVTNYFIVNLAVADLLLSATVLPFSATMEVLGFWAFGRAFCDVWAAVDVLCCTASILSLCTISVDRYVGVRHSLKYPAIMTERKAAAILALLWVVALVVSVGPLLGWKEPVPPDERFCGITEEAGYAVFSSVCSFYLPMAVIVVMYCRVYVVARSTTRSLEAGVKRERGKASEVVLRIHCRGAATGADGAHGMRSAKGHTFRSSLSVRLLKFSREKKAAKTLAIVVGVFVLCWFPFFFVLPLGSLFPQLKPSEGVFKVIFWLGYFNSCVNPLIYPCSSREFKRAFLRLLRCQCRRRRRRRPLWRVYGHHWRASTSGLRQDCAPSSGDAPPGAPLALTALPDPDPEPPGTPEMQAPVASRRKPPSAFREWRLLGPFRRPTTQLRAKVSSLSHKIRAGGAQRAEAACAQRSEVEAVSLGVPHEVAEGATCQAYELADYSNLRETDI

[23] = molecular target: Sigma intracellular receptor 2 (Homo sapiens) (UniProt Q5BJF2); details: Compound concentration 10.0 uM
Sequence of Sigma intracellular receptor 2 (Homo sapiens) (Q5BJF2 whole entry): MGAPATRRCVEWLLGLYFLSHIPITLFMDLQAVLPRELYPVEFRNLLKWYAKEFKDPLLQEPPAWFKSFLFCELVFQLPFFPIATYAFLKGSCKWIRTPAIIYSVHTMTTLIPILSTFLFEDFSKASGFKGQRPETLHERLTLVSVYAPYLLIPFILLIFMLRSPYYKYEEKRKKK

[24] = molecular target: Sigma non-opioid intracellular receptor 1 (Homo sapiens) (UniProt Q99720); details: Compound concentration 10.0 uM
[25] = molecular target: Estrogen receptor (Homo sapiens) (UniProt P03372); details: Compound concentration 10.0 uM
[26] = molecular target: Kappa-type opioid receptor (Homo sapiens) (UniProt P41145); details: Compound concentration 10.0 uM
[27] = molecular target: Glutamate receptor 2 (Homo sapiens) (UniProt P42262); details: Rattus norvegicus; Compound concentration 10.0 uM
[28] = molecular target: Type-1 angiotensin II receptor (Homo sapiens) (UniProt P30556); details: Compound concentration 10.0 uM
[29] = molecular target: Cannabinoid receptor 2 (Homo sapiens) (UniProt P34972); details: Compound concentration 10.0 uM
Oryctolagus cuniculus = organism: Oryctolagus cuniculus; details: Compound concentration 10.0 uM
[30] = molecular target: T2, Alpha-2B adrenergic receptor (Homo sapiens, UniProt P18089); assay: Adrenoceptor Reporter Cell Assay (ADRA2B); format: functional
T2 sequence (P18089 whole entry): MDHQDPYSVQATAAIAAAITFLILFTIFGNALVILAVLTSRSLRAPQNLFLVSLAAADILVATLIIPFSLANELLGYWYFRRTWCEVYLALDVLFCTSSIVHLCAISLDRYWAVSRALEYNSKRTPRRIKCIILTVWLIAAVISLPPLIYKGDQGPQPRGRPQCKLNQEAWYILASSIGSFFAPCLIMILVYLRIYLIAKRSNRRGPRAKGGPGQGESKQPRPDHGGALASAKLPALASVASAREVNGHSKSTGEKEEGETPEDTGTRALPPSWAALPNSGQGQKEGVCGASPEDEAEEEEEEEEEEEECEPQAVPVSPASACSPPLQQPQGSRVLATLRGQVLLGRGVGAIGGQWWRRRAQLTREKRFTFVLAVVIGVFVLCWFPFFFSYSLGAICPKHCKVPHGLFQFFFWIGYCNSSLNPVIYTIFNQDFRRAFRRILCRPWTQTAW

[31] = molecular target: D(1B) dopamine receptor (Homo sapiens) (UniProt P21918); details: Compound concentration 10.0 uM

Structure (SMILES)	IC50 [4]	IC50 [5]	inhibition [8] [%]	inhibition [9] [%]	inhibition [10] [%]	inhibition [11] [%]	inhibition [12] [%]	inhibition [13] [%]	inhibition [14] [%]	inhibition [15] [%]	inhibition [16] [%]	inhibition [17] [%]	inhibition [18] [%]	inhibition [19] [%]	inhibition [20] [%]	inhibition [21] [%]	inhibition [22] [%]	inhibition [23] [%]	inhibition [24] [%]	also measured
CNc1cc[n+](CCNC(=O)c2ccn3c(-c4c(C)noc4C)cnc3c2)cc1	5.52 µM (not active)	> 11.8 µM (not active)	19.5	17	3.22	5.99	-2.83	7.14	1.15	9.04	3.02	31.1	49.5	2.87	3.34	1.07	1.62	27.5	35.5	inhibition [1]: -6.3%; inhibition at 60 min, 10 µM [2]: 6% (not active); inhibition [3]: -0.5%; IC50 [6]: > 10 µM (not active); inhibition [7]: -1.7%; inhibition [25]: 6.2%; inhibition [26]: 0.5%; inhibition [27]: -1.1%; inhibition [28]: 5%; inhibition [29]: -3.8%; inhibition (Oryctolagus cuniculus): -7.5%
Cc1noc(C)c1-c1cnc2cc(C(=O)NCCC[n+]3ccc(N(C)C)cc3)ccn12	> 10 µM (not active)	> 10 µM (not active)	24.2	-4.21	-2.29	3.4	-2.67	1.28	2.11	36	15.9	9.17	16.1	3.84	7.75	-3.02	0.59	14.1	25.1	IC50 [30]: 7.1 µM (not active); inhibition [31]: 0.03%
